Laboratory results as given in article PMC6006164, “Natural cyclopeptide RA-V inhibits the NF-κB signaling pathway by targeting TAK1” (Cell Death & Disease, 2018).

Columns and labels:
NF-κB signaling pathway = assay: NF-κB-dependent luciferase reporter (5×κB-luciferase/pTK-Renilla), TNF-α-induced, HEK293T cells; type: cell-based; settings: HEK293T; RA-V 6 h, then 10 ng/mL TNF-α 2 h; three independent experiments; read-out: IC50, NF-κB-dependent luciferase reporter
Method: HEK293T or HeLa cells were seeded in 24-well plates and transiently transfected with the 5 × κB-luciferase and pTK-Renilla reporters using Lipofectamine 2000 (Invitrogen) for 18 h. The cells were then incubated with different concentrations of the compounds for the indicated times and subsequently stimulated with 10 ng/mL TNF-α for 2 h. The luciferase activity in the cell lysates was analyzed using the Dual Luciferase Reporter Assay System (Promega). The luciferase reporter assays were performed as previously described.
Supplementary Figure 1. RA-V has the best inhibitory effect on NF-κB signaling pathway among RAs. (a-b) HEK293T cells were transfected with the 5×κB-luciferase and pTK-Renilla reporters. Twenty-four hours after transfection, the cells were incubated with various concentrations of the indicated compounds for 6 h and then treated with 10 ng/ml TNF-α for 2 h before the luciferase activity assays. The data are presented as the means ± S.D. from three independent experiments. […]
Scheme for CB12 synthesis. (c) CB12 inhibited NF-κB reporter activity in a dose-dependent manner. The HEK293T cells were transfected with the 5×κB-luciferase and pTK-Renilla reporters. Twenty-four h after transfection, the cells were treated with various concentrations of CB12 for 6 h and then treated with 10 ng/ml TNF-α for 2 h before the luciferase activity assays. (d) […]
Supplementary Table 3: Screening data of small molecules
Category Parameter Description
Assay Type of assay Cell-based
Target NF-κB signaling pathway
Primary measurement Detection of Firefly luciferase enzyme activities and Renilla Luciferase expression
Key reagents 5 × κB-lucieferase and luciferase assay (Progema)
Assay protocol HEK293T cells were seeded in 24 -well plates and transiently transfected with 20 ng of 5×κB-luciferase and 2 ng of pTK-Renilla reporters using Lipofectamine
2000 (Invitrogen) for 18 h. The cells were then incubated with small molecules (10 μM) for 6 hours, and subsequently stimulated with 10 ng/ml TNF -α for 2 h. Luciferase activity of the cell lysates was analysed by the Dual Luciferase Reported Assay System
(Promega). The Firefly luciferase enzyme activities were determined for NF -κB signaling activities and normalized to Renilla Luciferase expression.
Library Library size approximately 200
Library composition natural and synthetic chemical compounds, including cyclopeptides, quinones and terpenes.
Source State Key Laboratory of Phytochemistry and Plant
Resources in West China, Kunming Institute of Botany, Chinese Academy of Sciences
Screen Format 24-well, Corning
Concentration(s) tested 10 μM
Reagent/ compound dispensing system Manual
Detection instrument and software Synergy 2 (BioTek)
Assay validation/QC Velcade inhibits NF-κB signaling pathway
Normalization The Firefly luciferase enzyme activities were normalized by Renilla Luciferase expression
Post-HTS analysis Hit criteria κB-luc/ Renilla ratio < 0.5 standard deviations from the […]
Hit rate Approximately 15%
Confirmation of hit purity and structure Compounds were verified by HPLC and NMR

TAK1–TAB1 interaction = target: T1, TAK1–TAB1 interaction (Homo sapiens, UniProt O43318+Q15750); assay: Co-immunoprecipitation of TAK1 and TAB1; type: cell-based; settings: HEK293T, Flag-TAK1 and HA-TAB1; RA-V 800 nM 6 h
T1 construct: expressed in transfected cells; host or cells: HEK293T
T1 sequence (O43318 1-579 isoform O43318-2): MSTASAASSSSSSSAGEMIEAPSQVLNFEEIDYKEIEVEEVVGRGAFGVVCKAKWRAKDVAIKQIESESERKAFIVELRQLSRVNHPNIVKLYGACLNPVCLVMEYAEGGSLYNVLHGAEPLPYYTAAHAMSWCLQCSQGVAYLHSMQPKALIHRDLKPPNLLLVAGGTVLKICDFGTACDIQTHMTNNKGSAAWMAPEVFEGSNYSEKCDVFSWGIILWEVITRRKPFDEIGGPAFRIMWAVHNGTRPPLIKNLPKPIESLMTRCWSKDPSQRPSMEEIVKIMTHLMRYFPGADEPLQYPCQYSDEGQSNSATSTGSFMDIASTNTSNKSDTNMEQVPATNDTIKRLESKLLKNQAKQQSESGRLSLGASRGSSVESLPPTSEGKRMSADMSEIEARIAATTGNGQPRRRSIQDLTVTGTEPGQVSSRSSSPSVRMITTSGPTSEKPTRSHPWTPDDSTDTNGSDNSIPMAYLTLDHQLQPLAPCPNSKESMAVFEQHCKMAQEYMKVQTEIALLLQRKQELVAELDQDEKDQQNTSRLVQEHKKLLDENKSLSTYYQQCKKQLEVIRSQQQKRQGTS
T1 sequence (Q15750 1-504 partner): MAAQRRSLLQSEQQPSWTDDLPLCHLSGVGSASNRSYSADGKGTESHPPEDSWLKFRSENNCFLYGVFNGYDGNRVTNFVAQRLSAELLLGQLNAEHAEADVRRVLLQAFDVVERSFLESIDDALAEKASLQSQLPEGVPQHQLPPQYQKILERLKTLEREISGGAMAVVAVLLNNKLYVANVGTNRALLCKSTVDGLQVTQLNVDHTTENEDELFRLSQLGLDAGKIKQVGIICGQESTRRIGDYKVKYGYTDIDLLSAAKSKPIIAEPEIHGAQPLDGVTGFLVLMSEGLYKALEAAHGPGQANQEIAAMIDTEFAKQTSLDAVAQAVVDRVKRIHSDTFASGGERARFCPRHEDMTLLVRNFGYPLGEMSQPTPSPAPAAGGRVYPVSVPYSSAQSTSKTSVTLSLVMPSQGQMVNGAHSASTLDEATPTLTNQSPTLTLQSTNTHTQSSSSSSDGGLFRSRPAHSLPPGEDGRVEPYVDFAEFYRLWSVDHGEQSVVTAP
Method: Fig. 4 RA-V blocks the interaction between TAK1 and TAB2. a RA-V blocked the exogenous TAK1–TAB2 interaction. HEK293T cells were transfected with Flag-TAK1 and HA-TAB2 for 24 h and then incubated with various concentrations of RA-V for 6 h. […] HEK293T cells were transfected with Flag-TAK1 and HA-TRAF6 or HA-TAB1 for 24 h and then incubated with RA-V (800 nM) for 6 h. The cell lysates were immunoprecipitated with HA antibody, and immunoblots were performed with the indicated antibodies. d RA-V blocked the endogenous TAK1–TAB2 interaction. HEK293T (left) or RAW264.7 (right) cells were incubated with 800 nM RA-V for 6 h and stimulated with 10 ng/mL TNF-α for 2 h or 1 μg/mL LPS for 3 h, respectively. The cell lysates were immunoprecipitated with TAK1 antibody or control IgG and then immunoblotted with the indicated antibodies. Each experiment was repeated at least three times
The cell lysates were prepared using radioimmunoprecipitation (RIPA) buffer containing 50 mM Tris-HCl pH 7.4, 150 mM NaCl, 1 mM ethylenediaminetetraacetic acid, 1% Triton X-100, 0.5% deoxycholate, and 0.1% sodium dodecyl sulfate, to which protease inhibitors (Roche) were added. The lysates were incubated with the indicated antibodies before adding 20 μL of Protein A/G agarose for 2 h. After four washes with the same buffer, the immunoprecipitates were boiled in 2 × SDS loading buffer.

For RA-V, the IC50 (NF-κB signaling pathway) was 64.6 nM and the “TAK1–TAB1 interaction” value (TAK1–TAB1 interaction) was “does not disrupt”.
